The numbers were not newly measured in patent US20060035883A1, “Novel serotonin receptor ligands and their uses thereof” (priority 2004, published 2006), which cites them from elsewhere.

A value given as a limit tells only on which side of the number the result lay.

For orientation: Ki means a dissociation constant, usually derived from enzyme kinetics or from competition with a known ligand.

Among the targets are D2 (Homo sapiens, UniProt P14416); α1; α2.
Holding throughout (details): read-out: Receptor affinities (Ki)
The target of another series is T1, 5-HT3 (Homo sapiens, UniProt P46098).
T1 sequence (P46098 24-478): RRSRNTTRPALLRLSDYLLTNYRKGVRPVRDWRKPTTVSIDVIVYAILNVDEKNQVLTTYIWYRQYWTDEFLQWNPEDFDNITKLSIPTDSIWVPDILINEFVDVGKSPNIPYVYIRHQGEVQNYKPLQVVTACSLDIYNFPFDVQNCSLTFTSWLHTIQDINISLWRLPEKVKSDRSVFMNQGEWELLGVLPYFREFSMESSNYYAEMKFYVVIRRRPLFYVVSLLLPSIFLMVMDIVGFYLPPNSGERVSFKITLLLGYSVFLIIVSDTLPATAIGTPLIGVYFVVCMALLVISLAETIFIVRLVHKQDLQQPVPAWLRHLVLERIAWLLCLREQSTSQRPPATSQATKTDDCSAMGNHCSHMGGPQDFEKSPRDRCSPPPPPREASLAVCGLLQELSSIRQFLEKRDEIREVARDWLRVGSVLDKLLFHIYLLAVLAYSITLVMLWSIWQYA

The target of a further series is T2, 5-HT2C (Homo sapiens, UniProt P28335).
T2 sequence (P28335 33-458): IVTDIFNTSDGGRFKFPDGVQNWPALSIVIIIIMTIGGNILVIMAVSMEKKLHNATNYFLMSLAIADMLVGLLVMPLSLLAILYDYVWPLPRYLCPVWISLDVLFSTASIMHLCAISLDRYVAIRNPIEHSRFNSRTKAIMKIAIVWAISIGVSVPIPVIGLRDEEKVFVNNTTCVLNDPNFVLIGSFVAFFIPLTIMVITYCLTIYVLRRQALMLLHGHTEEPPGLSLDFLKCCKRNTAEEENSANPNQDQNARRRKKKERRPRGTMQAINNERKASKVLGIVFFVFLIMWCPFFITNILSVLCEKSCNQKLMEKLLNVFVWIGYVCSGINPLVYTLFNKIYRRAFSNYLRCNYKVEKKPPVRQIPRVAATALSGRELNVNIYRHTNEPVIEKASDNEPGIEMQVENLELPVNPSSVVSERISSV

D2, sequence (P14416 whole entry): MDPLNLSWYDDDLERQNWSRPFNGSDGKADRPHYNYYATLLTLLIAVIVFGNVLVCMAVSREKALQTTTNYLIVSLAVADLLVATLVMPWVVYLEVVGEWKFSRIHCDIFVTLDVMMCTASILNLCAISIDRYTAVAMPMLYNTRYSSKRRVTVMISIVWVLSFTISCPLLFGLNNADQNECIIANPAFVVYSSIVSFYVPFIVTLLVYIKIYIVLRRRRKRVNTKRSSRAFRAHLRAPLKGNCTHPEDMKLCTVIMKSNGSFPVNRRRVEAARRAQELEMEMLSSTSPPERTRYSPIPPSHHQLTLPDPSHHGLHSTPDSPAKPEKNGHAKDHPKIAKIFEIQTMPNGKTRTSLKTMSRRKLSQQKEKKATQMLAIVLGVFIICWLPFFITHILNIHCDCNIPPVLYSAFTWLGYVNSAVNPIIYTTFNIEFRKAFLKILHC

As to `CN1CCN2c3ccccc3Cc3ccccc3C2C1` (stereo not drawn) [Mianserin], the Ki at D2 was > 1000 nM.

On to `CN1CCN2c3ncccc3Cc3ccccc3C2C1` (stereo not drawn) [Mirtazepine, mirtazepine], for which the inhibition constant Ki at 5-HT3 was 8 nM; at α1 it was 500 nM; on α2, 65 nM; at 5-HT2C, 12 nM; at D2 it was > 1000 nM.
